Assay results reported in patent US5523296A, “1,3-benzodioxole and 1,2-dialkoxybenzene derivatives as ocular hypotensive agents” (Allergan, Inc., priority 1994, dated 1996).

How the values were obtained:
[1] = tested on: intraocular pressure in dog eyes; assay: intraocular pressure in eyes of dogs (pneumatonometry); type: in vivo, beagle dogs; conditions: 6 hours after administr., dog eye
Protocol: The assay is descibed as follows: male and female beagle dogs weighing 10-15 kg had been trained for a minimum of 2 months so that intraocular pressure could be measured without the use of restraining devices. Intraocular pressure was measured by pneumatonometry using applanation tonometers (Alcon). One minute prior to tonometry, 25 μl of proparacaine (Allergan, Irvine Calif.) was applied to minimize ocular discomfort during the procedure. Determination of the effects of the compounds of the invention on intraocular pressure involved administration of 1 to 25 μl of solution of the compound to one eye and an equal volume of vehicle to the contralateral eye as a control.
The effect of the compounds of the invention to lower intraocular pressure in dog eyes, in accordance with the above-described assay is shown in Table 1 with respect to the following compounds: […]

Swiss 3T3 cells = assay: inhibition of DNA synthesis: incorporation of tritium labeled thymidine into Swiss 3T3 cells; type: cell-based, mouse; conditions: 22 hours incubation, 5 hours pulse-labeling, CPM per μg DNA, mean of quadruplicates, vehicle 2601
Protocol: In addition, compounds of the invention were also found to inhibit DNA synthesis as observed in an assay where the incorporation of tritium labeled thymidine into Swiss 3T3 cells is measured. The assay is described as follows.
Swiss mouse 3T3 cells were maintained in Dulbecco's modified Eagle's medium (DMEM) low glucose and supplemented with 10% fetal bovine serum FBS), 2 mM 1-glutamine and 1% antibiotic-antimycotic 100×. The cultures were incubated in 5% CO2 in air at 37° C. Confluent cultures were trypsinized and plated in quadruplicate cultures for experiments. Cells were plated at 1×10^5 cells per 35 mm well in DMEM containing 10% FBS in 6-well cluster plates and allowed to become confluent in 3 days. The cells were then made quiescent by washing them with Hank's balanced salt solution (HBSS) and incubating them for 24 hours in DMEM with 0.5% FBS. The cultures were then refed fresh DMEM containing 0.5% FBS and various concentrations of the test compounds. All compounds were dissolved in absolute ethanol, diluted with sterile filtered normal saline and added to the medium so that the final ethanol control cultures were incubated in medium containing 0.01% or less […]. […]
Pulse-labeling of the cultures consisted of collecting the conditioned, drug-treated or control containing media, then adding 1μ Ci/ml [^3 H]-TdR and incubating the cultures in the [^3 H]-TdR containing medium for 5 hours. […] Radioactivity was measured by liquid-scintillation counting using Beckman HP cocktail. […] After centrifugation as before, an aliquot of the supernatant containing [^3 H]-TdR incorporated into DNA (S2) was assayed for radioactivity by scintillation counting.
An aliquot of the remaining S2 supernatant was assayed for quantity of DNA by the diphenylamine method. […] Absorbance of the DNA standards and samples was measured in a Beckman Biomek spectrophotometer at 600 nm wavelength.
The data was expressed as CPM ([^3 H]-TdR incorporated into DNA) per μg DNA and the mean of the quadruplicate samples was obtained for each experiment. […]

Row | Structure (SMILES) | Change in IOP ([1]; 0.1 %) | further results
1 | OCCCCCc1cc2c(cc1C(O)CCc1ccccc1)OCO2 (racemic) [Compound 2, (±)-5-[6-(1-hydroxy-3-phenylpropyl)]-1,3-benzodioxol-5yl]pentanol] | -1.25 mm of Hg | –
2 | COC(=O)CCCCc1cc2c(cc1C(O)CCc1ccccc1)OCO2 (racemic) [Compound 1, (±)-Methyl5-[6-(1-hydroxy-3-phenylpropyl)]-1,3-benzodioxol-5-yl]-pentanoate] | -1.0 mm of Hg | –
3 | CCCCCC(O)c1cc2c(cc1CCCCC(=O)O)OCO2 (racemic) [Compound 5, (±)-5-[6-(1-hydroxy)hexyl]-1,3-benzodioxol-5-yl]-pentanoic acid] | – | CPM ([3H]-TdR incorporated into DNA) (Swiss 3T3 cells; 10^-5 M): 1454 CPM; CPM ([3H]-TdR incorporated into DNA) (Swiss 3T3 cells; 10^-6 M): 1598 CPM; CPM ([3H]-TdR incorporated into DNA) (Swiss 3T3 cells; 10^-7 M): 2102 CPM
4 | CCCCCC(O)c1cc2c(cc1CCCCCO)OCO2 (racemic) [Compound 3, (±)-5-[6-(1-hydroxy)hexyl]-1,3-benzodioxol-5-yl]-pentanol] | -4.2 mm of Hg | Change in IOP ([1]; 0.01 %): -3.0 mm of Hg
5 | OCCCCCc1cc2c(cc1C(O)CCc1cccs1)OCO2 (racemic) [Compound 6, (±)-5-[[6-(1-hydroxy-3-(2-thienyl)propyl]-1,3-benzodioxolyl]pentanol] | -1.1 mm of Hg | –
6 | CCCCCC(O)c1cc(OC)c(OC)cc1CCCCC(=O)O (racemic) [Compound 4, (±)-5-[2-(1-Hydroxy)hexyl-4,5-dimethoxyphenyl-]-1-pentanoic acid] | -1.2 mm of Hg | –
7 | O=C(O)CCCCc1cc2c(cc1C(O)CCc1cccs1)OCO2 (racemic) [Compound 7, (±)-5-[[6-(1-hydroxy-3-(2-thienyl)propyl)]-1,3-benzodioxolyl]pentanoic acid] | -1.0 mm of Hg | –
